From PMC9274004, “Deciphering the Molecular Interaction Between the Adhesion G Protein-Coupled Receptor ADGRV1 and its PDZ-Containing Regulator PDZD7” (Frontiers in Molecular Biosciences, 2022) come the findings set out here.

The target of test [1] is T1, PDZD7 P1P2 G103R (Mus musculus, UniProt E9Q9W7, G103R).
T1 construct: PDZ2ext (206-313), P1P2 (81-313); GST (followed by TEV site) (N, cleaved yes); made in house; host or cells: E. coli BL21 DE3
As to the kind of experiment: Fluorescence titration of P1P2 G103R. It is filed as binding, murine. On the procedure:
Fluorescence titrations were performed on a Jasco V-730 spectrometer using quartz cell 109.004F-QS (Hellma Analytics) with an optical path of 10 mm and with thick side to reduce the inner filter effect. PDZ1ext and P1P2 were prepared in Phosphate Buffer pH 6.6 (50 mM) at 6 and 2 µM respectively, while PDZ2ext was prepared in Tris HCl pH 7.5 (50 mM) at 5 µM. Variations in the quantum yield of fluorescence of tryptophans from the sample were monitored upon progressive addition of buffered ADGRV1pbm peptide. After peptide addition, the sample is homogenized by in-spectrometer magnet agitation for 30 s. The sample is left to rest for an additional 60 s before measurement. Excitation is set at 295 nm and fluorescence was measured at the maximum emission wavelength (346-349 nm) of the unbound form with a 5 nm bandwidth for both. Titration curves were fitted using the following formula: y = Fp∗p0+(Fx-Fp)∗0.5∗(R∗I0+(1-R)∗x + K-((R∗I0+(1-R)∗x + K)^2-4∗R∗(I0-x)∗x)^1/2), where p0 is the initial protein concentration, I0 the peptide stock concentration, R the p0/I0 ratio, x the volume of added peptide in µl, Fp the fluorescence of PDZ constructs, Fx the fluorescence of the complex, and K the Kd. The values of p0, I0 and R are kept constant.
We characterized the potential effect of the two substitutions on the interaction with ADGRV1pbm using a panel of techniques. […]

Test [2] has as its target T2, PDZD7 PDZ1ext G103R (Mus musculus, UniProt E9Q9W7, G103R).
T2 construct: PDZ1 (81-167), PDZ1ext (81-192); GST (followed by TEV site) (N, cleaved yes); made in house; host or cells: E. coli BL21 DE3
The test can be described thus: NMR titration of PDZ1ext G103R. It is filed as binding, murine. The conditions noted are these: Tris HCl pH 7.5 (50 mM), 25°C. Here is the method: All experiments were recorded at 25°C on a Bruker 800 MHz spectrometer equipped with a triple resonance ^1H{^13C/^15N} cryoprobe. The ^1H, ^15 N and ^13C backbone resonances assignment of PDZ1ext was carried out using 3D HNCA, HNCACB, HNCO, HNCOCA experiments (Tris HCl buffer adjusted to pH 6). The 2D ^1H-^15N HSQC spectra used to compare PDZ1, PDZ1ext, PDZ2 and PDZ2ext were recorded in Tris HCl pH 7.5 (50 mM). The 2D ^1H-^15N HSQC spectra used to compare PDZ1ext, PDZ2ext and P1P2 were recorded in Phosphate Buffer pH 6.5 (50 mM). Titration experiments of PDZ1 (WT), PDZ1ext (WT) and PDZ1ext (G103R) against ADGRV1pbm peptide were performed in Tris HCl pH 7.5 (50 mM). Averaged Chemical Shifts Perturbations (CSP) were calculated as: Δδavg = ((Δδ(^1H))^2+(Δδ(^15N)*0.159)^2)^½. […]
We characterized the potential effect of the two substitutions on the interaction with ADGRV1pbm using a panel of techniques. First, we confirmed by NMR that PDZ1ext G103R is well-folded, with significant perturbations (CSPs >0.04 ppm) only detected for residues spatially close to the G103R mutation (Supplementary Figure S10). […] We calculated Rg = 28 Å and Dmax = 118.2 Å for the mutant tandem without ligand, and Rg = 27.7 Å and Dmax = 123.6 Å in presence of ADGRV1pbm peptide. […]

Where no end group is shown, it is not given here.

T2 sequence (E9Q9W7 81-192 G103R): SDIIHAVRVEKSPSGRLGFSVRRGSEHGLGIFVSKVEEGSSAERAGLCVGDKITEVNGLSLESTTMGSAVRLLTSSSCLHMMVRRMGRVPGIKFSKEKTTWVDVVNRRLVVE
T1 sequence (E9Q9W7 81-313 G103R): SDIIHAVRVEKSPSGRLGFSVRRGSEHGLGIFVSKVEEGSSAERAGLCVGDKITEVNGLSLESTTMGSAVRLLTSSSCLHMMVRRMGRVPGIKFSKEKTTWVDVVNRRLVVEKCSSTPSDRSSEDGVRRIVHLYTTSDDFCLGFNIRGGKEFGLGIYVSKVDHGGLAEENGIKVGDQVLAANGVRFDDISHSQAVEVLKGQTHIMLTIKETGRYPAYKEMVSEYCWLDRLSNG

VELRRIPIADTHL [ADGRV1pbm]: the Kd in test [1] was found to be 1900 ± 400 nM; in test [2] it was 1.19 mM.
